Test results taken from PubChem BioAssay AID1259411 (Chemical Carcinogenesis Research Information System (CCRIS), 2018).
Active and inactive are the calls of the source. The rule behind the calls is not given here.

System: rodent carcinogenicity bioassays, tumor incidence
Assay: CCRIS carcinogenicity studies
In short: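 NCI-built, expert-reviewed records of carcinogenicity and related test outcomes (mutagenicity, tumor promotion/inhibition) compiled from published and report sources, historical span 1985-2011, not updated.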

O=[N+]([O-])c1ccccc1
carcinogen call (Species: MOUSE, Strain/Sex: B6C3F1/FEMALE, Route: INHALATION, Dose: 0, 5, 25, 50 PPM 6 HR/D 5 D/WK FOR 2 YR (STUDY DURATION: 2 YR), Dose: 0, 5, 25, 50 PPM 6 HR/D 5 D/WK FOR 2 YR (STUDY DURATION: 2 YR), Tumor Site: Type of Lesion: MAMMARY GLAND: ADENOCARCINOMA): active; positive | carcinogen call (Species: MOUSE, Strain/Sex: B6C3F1/MALE, Route: INHALATION, Dose: 0, 5, 25, 50 PPM 6 HR/D 5 D/WK FOR 2 YR (STUDY DURATION: 2 YR), Dose: 0, 5, 25, 50 PPM 6 HR/D 5 D/WK FOR 2 YR (STUDY DURATION: 2 YR), Tumor Site: Type of Lesion: LUNG: ADENOMA, ADENOMA OR CARCINOMA, THYROID GLAND: FOLLICULAR CELL ADENOMA): active; positive | carcinogen call (Species: RAT, Strain/Sex: F344/FEMALE, Route: INHALATION, Dose: 0, 1, 5, 25 PPM 6 HR/D 5 D/WK FOR 2 YR (STUDY DURATION: 2 YR), Dose: 0, 1, 5, 25 PPM 6 HR/D 5 D/WK FOR 2 YR (STUDY DURATION: 2 YR), Tumor Site: Type of Lesion: UTERUS: ENDOMETRIAL STROMAL POLYP): active; positive | carcinogen call (Species: RAT, Strain/Sex: F344/MALE, Route: INHALATION, Dose: 0, 1, 5, 25 PPM 6 HR/D 5 D/WK FOR 2 YR (STUDY DURATION: 2 YR), Dose: 0, 1, 5, 25 PPM 6 HR/D 5 D/WK FOR 2 YR (STUDY DURATION: 2 YR), Tumor Site: Type of Lesion: LIVER: HEPATOCELLULAR ADENOMA, HEPATOCELLULAR ADENOMA OR CARCINOMA, KIDNEY: TUBULAR ADENOMA, TUBULAR ADENOMA OR CARCINOM): active; positive | carcinogen call (Species: RAT, Strain/Sex: STRAIN-CD/MALE, Route: INHALATION, Dose: 0, 1, 5, 25 PPM 6 HR/D 5 D/WK FOR 2 YR (STUDY DURATION: 2 YR), Dose: 0, 1, 5, 25 PPM 6 HR/D 5 D/WK FOR 2 YR (STUDY DURATION: 2 YR), Tumor Site: Type of Lesion: LIVER: HEPATOCELLULAR ADENOMA, HEPATOCELLULAR ADENOMA OR CARCINOMA): active; positive

NC=O
carcinogen call (Species: Mouse, Strain/Sex: B5C3F1/Female, Route: Oral, Dose: 0, 20, 40, 80 mg/kg in deioninzed water, by gavage, 5 d/wk for 104-105 wk, Tumor Site: Type of Lesion: Liver: hepatocellular adenoma and carcinoma (combined)): active; positive, authors described results as equivocal evidence of carcinogenic activi | carcinogen call (Species: Mouse, Strain/Sex: B6C3F1/Male, Route: Oral, Dose: 0, 20, 40, 80 mg/kg in deioninzed water, by gavage, 5 d/wk for 104-105 wk, Tumor Site: Type of Lesion: Liver: hemangiosarcoma): active; positive, authors described results as clear evidence of carcinogenic activity | carcinogen call (Species: Rat, Strain/Sex: F344/N/Female, Route: Oral, Dose: 0, 20, 40, 80 mg/kg in deioninzed water, by gavage, 5 d/wk for 104-105 wk): inactive; negative | carcinogen call (Species: Rat, Strain/Sex: F344/N/Male, Route: Oral, Dose: 0, 20, 40, 80 mg/kg in deioninzed water, by gavage, 5 d/wk for 104-105 wk): inactive; negative

CCC(C)n1c(=O)[nH]c(C)c(Br)c1=O (configuration not stated)
carcinogen call (Species: Mouse, Strain/Sex: CD-1/Female (80/sex/dose), Route: Oral, Dose: 0, 250, 1250, 5000 ppm in diet for 18 mo, Dose: 0, 250, 1250, 5000 ppm in diet for 18 mo): inactive; negative; purity 95% | carcinogen call (Species: Mouse, Strain/Sex: CD-1/Male (80/sex/dose), Route: Oral, Dose: 0, 250, 1250, 5000 ppm in diet for 18 mo, Dose: 0, 250, 1250, 5000 ppm in diet for 18 mo, Tumor Site: Type of Lesion: Liver: significant increase in combined hepatocellular adenomas and carcinomas at highest dose, liver lesions (neoplasti): active; positive: purity 95% | carcinogen call (Species: Rat, Strain/Sex: Crl:CD (BR)/Female (62/sex/group), Route: Oral, Dose: 0, 50, 250, 2500 ppm in diet for 2 yr, Dose: 0, 50, 250, 2500 ppm in diet for 2 yr): inactive; negative (mtd may have been exceeded); purity: 95-99% | carcinogen call (Species: Rat, Strain/Sex: Crl:CD (BR)/Male (62/sex/group), Route: Oral, Dose: 0, 50, 250, 2500 ppm in diet for 2 yr, Dose: 0, 50, 250, 2500 ppm in diet for 2 yr): inactive; negative (mtd may have been exceeded); purity: 95-99%

Cc1cc(-c2ccc(N/N=C3\C=Cc4c(S(=O)(=O)O)cc(S(=O)(=O)O)c(N)c4C3=O)c(C)c2)ccc1N/N=C1\C=Cc2c(S(=O)(=O)O)cc(S(=O)(=O)O)c(N)c2C1=O
carcinogen call (Species: RAT, Route: INTRAPERITONEAL, Tumor Site: Type of Lesion: LIVER): active; positive

CNc1nncc2ccccc12
carcinogen call (Species: MOUSE, Strain/Sex: SWISS/MALE,FEMALE, Route: ORAL, Dose: 0.125% IN WATER, Tumor Site: Type of Lesion: LUNG): active; positive | carcinogen call (Species: RAT, Strain/Sex: SPRAGUE-DAWLEY/MALE, Route: ORAL, Dose: 0, 0.035% IN DIET FOR 68-87 WK (STUDY DURATION: 87 WK)): inactive; negative | carcinogen call (Species: RAT, Strain/Sex: SPRAGUE-DAWLEY/MALE, Route: SUBCUTANEOUS, Dose: 0, 16.7 MG/KG 1/WK FOR 87 WK (STUDY DURATION: 87 WK)): inactive; negative | carcinogen call (Species: RAT, Strain/Sex: SPRAGUE-DAWLEY/MALE, Route: SUBCUTANEOUS, Dose: 0, 16.7 MG/KG 1/WK FOR 87 WK ADMINISTERED TO PARTIALLY HEPATECTOMIZED RATS (STUDY DURATION: 87 WK)): inactive; negative

Clc1ccc(Cl)c(-c2cc(Cl)ccc2Cl)c1
carcinogen call (Species: MOUSE, Strain/Sex: STRAIN-A/FEMALE, Route: INTRAPERITONEAL, Dose: 0, 0.1, 0.2 UMOL/UL OF DMSO 5, 10 AND 20 µL GIVEN ON DAYS 4, 8 AND 15 AFTER BIRTH, RESPECTIVELY (STUDY DURATION: 28 WK), Dose: 0, 0.1, 0.2 UMOL/UL OF DMSO 5, 10 AND 20 µL GIVEN ON DAYS 4, 8 AND 15 AFTER BIRTH, RESPECTIVELY (STUDY DURATION: 28 WK)): inactive; negative | carcinogen call (Species: MOUSE, Strain/Sex: STRAIN-A/MALE, Route: INTRAPERITONEAL, Dose: 0, 0.1, 0.2 UMOL/UL OF DMSO 5, 10 AND 20 µL GIVEN ON DAYS 4, 8 AND 15 AFTER BIRTH, RESPECTIVELY (STUDY DURATION: 28 WK), Dose: 0, 0.1, 0.2 UMOL/UL OF DMSO 5, 10 AND 20 µL GIVEN ON DAYS 4, 8 AND 15 AFTER BIRTH, RESPECTIVELY (STUDY DURATION: 28 WK)): inactive; negative

CO[C@H]1/C=C/O[C@@]2(C)Oc3c(C)c(O)c4c(O)c(c(C=NN5CCN(C)CC5)c(O)c4c3C2=O)NC(=O)/C(C)=C\C=C\[C@H](C)[C@H](O)[C@@H](C)[C@@H](O)[C@@H](C)[C@H](OC(C)=O)[C@@H]1C
carcinogen call (Species: MOUSE, Strain/Sex: C3F/FEMALE, Route: ORAL, Dose: 0.01, 0.03 0.06% IN DRINKING WATER WITH 0.05% SODIUM ASCORBATE FOR 60 WK, Tumor Site: Type of Lesion: LIVER: BENIGN TUMOR OR MALIGNANT TUMOR): active; positive

CC(C)CCC[C@@H](C)[C@H]1CC[C@H]2[C@@H]3CC=C4C[C@@H](OC(=O)Cc5ccc(N(CCCl)CCCl)cc5)CC[C@]4(C)[C@H]3CC[C@]12C
carcinogen call (Species: MOUSE, Strain/Sex: B6C3F1/FEMALE, Route: GAVAGE, Dose: 0, 7, 15, 30 MG/KG 3/WK FOR 52-88 WK (STUDY DURATION: 62-104 WK), Dose: 0, 7, 15, 30 MG/KG 3/WK FOR 52-88 WK (STUDY DURATION: 62-104 WK), Tumor Site: Type of Lesion: LUNG: ALVEOLAR/BRONCHIOLAR ADENOMA, CARCINOMA, MYOCARDIUM: SARCOMA, OVARIES: TUBULAR ADENOMA, HEMATOPOIETIC SYSTEM (LEUK, Tumor Site: Type of Lesion: LUNG: ALVEOLAR/BRONCHIOLAR ADENOMA, CARCINOMA, MYOCARDIUM: SARCOMA, OVARIES: TUBULAR ADENOMA, HEMATOPOIETIC SYSTEM (LEUK): active; positive | carcinogen call (Species: MOUSE, Strain/Sex: B6C3F1/MALE, Route: GAVAGE, Dose: 0, 7, 15, 30 MG/KG 3/WK FOR 52-102 WK (STUDY DURATION: 74-104 WK), Dose: 0, 7, 15, 30 MG/KG 3/WK FOR 52-102 WK (STUDY DURATION: 74-104 WK), Tumor Site: Type of Lesion: LUNG: ALVEOLAR/BRONCHIOLAR ADENOMA, CARCINOMA, HEMATOPOIETIC SYSTEM (LEUKEMIA), LYMPHATIC SYSTEM: LYMPHOMA, MYOCARDIUM:, Tumor Site: Type of Lesion: LUNG: ALVEOLAR/BRONCHIOLAR ADENOMA, CARCINOMA, HEMATOPOIETIC SYSTEM (LEUKEMIA), LYMPHATIC SYSTEM: LYMPHOMA, MYOCARDIUM:): active; positive | carcinogen call (Species: RAT, Strain/Sex: SPRAGUE-DAWLEY/FEMALE, Route: GAVAGE, Dose: 0, 5, 10 MG/KG 3/WK FOR 52 WKS (STUDY DURATION: 84-85 WK), Dose: 0, 5, 10 MG/KG 3/WK FOR 52 WKS (STUDY DURATION: 84-85 WK), Tumor Site: Type of Lesion: MAMMARY GLAND: ADENOCARCINOMA, FIBROADENOMA): active; positive | carcinogen call (Species: RAT, Strain/Sex: SPRAGUE-DAWLEY/MALE, Route: GAVAGE, Dose: 0, 5, 10 MG/KG 3/WK FOR 52 WK (STUDY DURATION: 84-85 WK), Dose: 0, 5, 10 MG/KG 3/WK FOR 52 WK (STUDY DURATION: 84-85 WK)): inactive; negative

N#[N+]c1ccc(CO)cc1
carcinogen call (Species: MOUSE, Strain/Sex: SWISS/FEMALE, Route: SUBCUTANEOUS, Dose: 0, 50 UG/G BW IN 0.01 ML 0.9% SALINE 1/WK FOR 26 WK (STUDY DURATION: 140 WK), Tumor Site: Type of Lesion: SUBCUTIS: TUMOR, SKIN: TUMOR): active; positive | carcinogen call (Species: MOUSE, Strain/Sex: SWISS/MALE, Route: SUBCUTANEOUS, Dose: 0, 50 UG/G BW IN 0.01 ML 0.9% SALINE 1/WK FOR 26 WK (STUDY DURATION: 140 WK), Tumor Site: Type of Lesion: SUBCUTIS: TUMOR, SKIN: TUMOR): active; positive
